Measurements: patent US20040022667A1 (priority 2001, published 2004)

How the values were obtained:
[1] = 20° C.; cited from earlier work
anthrax spores = format: cell-based, Bacillus anthracis; settings: ~50 ppm (approx. 50 mg/liter) pure ClO2 in water

| Molecule | solubility per liter of water [1] [mg] | time to substantially destroy anthrax spores (anthrax spores) |
| --- | --- | --- |
| O=O [oxygen] | 9.2 | – |
| Chlorine dioxide | – | less than 1 min |
